Test results as given in ChEMBL document CHEMBL1151757, “Synthesis, radiosynthesis, and biological evaluation of fluorine-18-labeled 2beta-carbo(fluoroalkoxy)-3beta-(3'-((Z)-2-haloethenyl)phenyl)nortropanes: candidate radioligands for in vivo imaging of the serotonin transporter with positron emission tomography” (J Med Chem, 2008).

Legend:
[1] = Ratio of drug uptake in pons to cerebellum in anesthetized cynomolgus monkey after 205 mins postinjection; type: ADME, organism-based, Macaca fascicularis; settings: in vivo
[2] = Drug uptake in awake rhesus monkey brain medulla after 35 mins postinjection; type: ADME, organism-based, Macaca mulatta; settings: in vivo
[3] = Ratio of drug uptake in thalamus to cerebellum in awake rhesus monkey after 2.8 mins postinjection; type: ADME, organism-based, Macaca mulatta; settings: in vivo, 168 s
[4] = Ratio of drug uptake in pons to cerebellum in awake rhesus monkey after 2.8 mins postinjection; type: ADME, organism-based, Macaca mulatta; settings: in vivo, 168 s
[5] = Ratio of drug uptake in occipital lobe to cerebellum in awake rhesus monkey after 0.8 mins postinjection; type: ADME, organism-based, Macaca mulatta; settings: in vivo, 48 s
[6] = Ratio of drug uptake in occipital lobe to cerebellum in awake rhesus monkey after 13.5 mins postinjection; type: ADME, organism-based, Macaca mulatta; settings: in vivo, 0.225 h
[7] = Ratio of drug uptake in occipital lobe to cerebellum in awake rhesus monkey after 10.5 mins postinjection; type: ADME, organism-based, Macaca mulatta; settings: in vivo, 0.175 h
[8] = Ratio of drug uptake in occipital lobe to cerebellum in awake rhesus monkey after 4.5 mins postinjection; type: ADME, organism-based, Macaca mulatta; settings: in vivo, 0.075 h
[9] = Drug uptake in awake rhesus monkey brain medulla after 115 mins postinjection; type: ADME, organism-based, Macaca mulatta; settings: in vivo
[10] = Drug uptake in awake rhesus monkey brain midbrain after 105 mins postinjection; type: ADME, organism-based, Macaca mulatta; settings: in vivo, 1.75 h
[11] = Ratio of drug uptake in putamen to cerebellum in awake rhesus monkey after 105 mins postinjection; type: ADME, organism-based, Macaca mulatta; settings: in vivo, 1.75 h
[12] = Ratio of drug uptake in caudate to cerebellum in awake rhesus monkey after 10.5 mins postinjection; type: ADME, organism-based, Macaca mulatta; settings: in vivo, 0.175 h
[13] = Drug uptake in awake rhesus monkey brain putamen after 95 mins postinjection; type: ADME, organism-based, Macaca mulatta; settings: in vivo
[14] = Drug uptake in awake rhesus monkey brain caudate after 25 mins postinjection; type: ADME, organism-based, Macaca mulatta, Caudate nucleus; settings: in vivo
[15] = Drug uptake in awake rhesus monkey brain thalamus after 10.5 mins postinjection; type: ADME, organism-based, Macaca mulatta; settings: in vivo, 0.175 h
[16] = target: Sodium-dependent dopamine transporter (Homo sapiens, UniProt Q01959); assay: Displacement of [3H]RTI-55 from human DAT transfected in human HEK293 cells; type: cell-based
Chain of Sodium-dependent dopamine transporter (Q01959 whole entry): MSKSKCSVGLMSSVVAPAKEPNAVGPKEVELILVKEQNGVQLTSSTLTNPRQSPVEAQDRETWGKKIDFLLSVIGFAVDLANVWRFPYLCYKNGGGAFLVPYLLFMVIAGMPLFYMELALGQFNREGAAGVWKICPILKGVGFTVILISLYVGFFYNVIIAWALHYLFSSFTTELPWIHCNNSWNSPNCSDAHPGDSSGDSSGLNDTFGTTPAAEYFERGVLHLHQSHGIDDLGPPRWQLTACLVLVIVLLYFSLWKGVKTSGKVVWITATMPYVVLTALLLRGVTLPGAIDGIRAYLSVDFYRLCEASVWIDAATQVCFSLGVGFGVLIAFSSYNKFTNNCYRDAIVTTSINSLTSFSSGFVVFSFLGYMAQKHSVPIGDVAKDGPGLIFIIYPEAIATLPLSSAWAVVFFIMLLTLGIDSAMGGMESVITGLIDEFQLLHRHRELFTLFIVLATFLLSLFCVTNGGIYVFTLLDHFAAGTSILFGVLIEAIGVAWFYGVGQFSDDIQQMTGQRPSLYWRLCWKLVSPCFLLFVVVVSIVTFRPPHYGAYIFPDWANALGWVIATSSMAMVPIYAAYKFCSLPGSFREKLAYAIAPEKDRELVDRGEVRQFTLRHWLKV

[17] = Ratio of drug uptake in pons to cerebellum in awake rhesus monkey after 55 mins postinjection; type: ADME, organism-based, Macaca mulatta; settings: in vivo
[18] = Drug uptake in awake rhesus monkey brain thalamus after 95 mins postinjection; type: ADME, organism-based, Macaca mulatta; settings: in vivo
[19] = Drug uptake in awake rhesus monkey brain cerebellum after 10.5 mins postinjection; type: ADME, organism-based, Macaca mulatta; settings: in vivo, 0.175 h
[20] = Drug uptake in awake rhesus monkey brain cerebellum after 45 mins postinjection; type: ADME, organism-based, Macaca mulatta; settings: in vivo, 0.75 h
[21] = Ratio of drug uptake in midbrain to cerebellum in awake rhesus monkey after 45 mins postinjection; type: ADME, organism-based, Macaca mulatta; settings: in vivo, 0.75 h
[22] = Drug uptake in awake rhesus monkey caudate after 2.8 mins postinjection; type: ADME, organism-based, Macaca mulatta, Caudate nucleus; settings: in vivo, 168 s
[23] = Drug uptake in awake rhesus monkey putamen after 1.8 mins postinjection; type: ADME, organism-based, Macaca mulatta; settings: in vivo, 0.03 h
[24] = Drug uptake in awake rhesus monkey putamen after 2.3 mins postinjection; type: ADME, organism-based, Macaca mulatta; settings: in vivo, 138 s
[25] = Drug uptake in awake rhesus monkey thalamus after 1.8 mins postinjection; type: ADME, organism-based, Macaca mulatta; settings: in vivo, 0.03 h
[26] = Drug uptake in awake rhesus monkey midbrain after 0.3 mins postinjection; type: ADME, organism-based, Macaca mulatta; settings: in vivo, 0.005 h
[27] = Drug uptake in awake rhesus monkey medulla after 0.8 mins postinjection; type: ADME, organism-based, Macaca mulatta, Medulla of organ; settings: in vivo, 48 s
[28] = Drug uptake in awake rhesus monkey frontal lobe after 1.3 mins postinjection; type: ADME, organism-based, Macaca mulatta; settings: in vivo, 78 s
[29] = Drug uptake in awake rhesus monkey occipital lobe after 2.3 mins postinjection; type: ADME, organism-based, Macaca mulatta; settings: in vivo, 138 s
[30] = Drug uptake in awake rhesus monkey occipital lobe after 2.8 mins postinjection; type: ADME, organism-based, Macaca mulatta; settings: in vivo, 168 s
[31] = Ratio of drug uptake in caudate to cerebellum in awake rhesus monkey after 0.8 mins postinjection; type: ADME, organism-based, Macaca mulatta; settings: in vivo, 48 s
[32] = Ratio of drug uptake in caudate to cerebellum in awake rhesus monkey after 2.8 mins postinjection; type: ADME, organism-based, Macaca mulatta; settings: in vivo, 168 s
[33] = Ratio of drug uptake in putamen to cerebellum in awake rhesus monkey after 0.3 mins postinjection; type: ADME, organism-based, Macaca mulatta; settings: in vivo, 0.005 h
[34] = Ratio of drug uptake in putamen to cerebellum in awake rhesus monkey after 0.8 mins postinjection; type: ADME, organism-based, Macaca mulatta; settings: in vivo, 48 s
[35] = Drug uptake in anesthetized cynomolgus monkey brain occipital lobe after 207.5 mins postinjection; type: ADME, organism-based, Macaca fascicularis; settings: in vivo
[36] = Drug uptake in anesthetized cynomolgus monkey brain frontal lobe after 192.5 mins postinjection; type: ADME, organism-based, Macaca fascicularis; settings: in vivo
[37] = Drug uptake in anesthetized cynomolgus monkey brain frontal lobe after 207.5 mins postinjection; type: ADME, organism-based, Macaca fascicularis; settings: in vivo
[38] = test system: Medulla; assay: Drug uptake in anesthetized cynomolgus monkey brain medulla after 197.5 mins postinjection; type: ADME, organism-based, Macaca fascicularis; settings: in vivo
[39] = test system: Medulla; assay: Drug uptake in anesthetized cynomolgus monkey brain medulla after 202.5 mins postinjection; type: ADME, organism-based, Macaca fascicularis; settings: in vivo, 3.375 h
[40] = test system: Caudate; assay: Drug uptake in anesthetized cynomolgus monkey brain caudate after 192.5 mins postinjection; type: ADME, organism-based, Macaca fascicularis, Caudate nucleus; settings: in vivo
[41] = test system: Caudate; assay: Drug uptake in anesthetized cynomolgus monkey brain caudate after 197.5 mins postinjection; type: ADME, organism-based, Macaca fascicularis, Caudate nucleus; settings: in vivo
[42] = Drug uptake in anesthetized cynomolgus monkey brain frontal lobe after 135 mins postinjection; type: ADME, organism-based, Macaca fascicularis; settings: in vivo, 2.25 h
[43] = Drug uptake in anesthetized cynomolgus monkey brain occipital lobe after 185 mins postinjection; type: ADME, organism-based, Macaca fascicularis; settings: in vivo
[44] = Drug uptake in anesthetized cynomolgus monkey brain frontal lobe after 205 mins postinjection; type: ADME, organism-based, Macaca fascicularis; settings: in vivo
[45] = Protein binding in anesthetized cynomolgus monkey plasma after 2 mins postinjection; type: ADME, organism-based, Macaca fascicularis; settings: read-out: PPB (converted)
[46] = Protein binding in anesthetized cynomolgus monkey plasma after 5 mins postinjection; type: ADME, organism-based, Macaca fascicularis; settings: read-out: PPB (converted)
[47] = Protein binding in anesthetized cynomolgus monkey plasma after 180 mins postinjection; type: ADME, organism-based, Macaca fascicularis; settings: read-out: PPB (converted)
[48] = Drug uptake in awake rhesus monkey brain frontal lobe after 1.75 mins postinjection; type: ADME, organism-based, Macaca mulatta; settings: in vivo, 105 s
[49] = Drug uptake in awake rhesus monkey brain medulla after 1.25 mins postinjection; type: ADME, organism-based, Macaca mulatta; settings: in vivo, 75 s
[50] = Drug uptake in awake rhesus monkey brain medulla after 17.5 mins postinjection; type: ADME, organism-based, Macaca mulatta; settings: in vivo
[51] = Drug uptake in awake rhesus monkey brain pons after 0.25 mins postinjection; type: ADME, organism-based, Macaca mulatta; settings: in vivo, 15 s
[52] = Drug uptake in awake rhesus monkey brain pons after 2.75 mins postinjection; type: ADME, organism-based, Macaca mulatta; settings: in vivo, 165 s
[53] = Drug uptake in awake rhesus monkey brain pons after 4.5 mins postinjection; type: ADME, organism-based, Macaca mulatta; settings: in vivo, 0.075 h
[54] = Drug uptake in awake rhesus monkey brain midbrain after 0.75 mins postinjection; type: ADME, organism-based, Macaca mulatta; settings: in vivo, 45 s
[55] = Drug uptake in awake rhesus monkey brain midbrain after 1.25 mins postinjection; type: ADME, organism-based, Macaca mulatta; settings: in vivo, 75 s
[56] = Drug uptake in awake rhesus monkey brain midbrain after 13.5 mins postinjection; type: ADME, organism-based, Macaca mulatta; settings: in vivo, 0.225 h
[57] = Ratio of drug uptake in putamen to cerebellum in awake rhesus monkey after 4.5 mins postinjection; type: ADME, organism-based, Macaca mulatta; settings: in vivo, 0.075 h
[58] = Ratio of drug uptake in caudate to cerebellum in awake rhesus monkey after 17.5 mins postinjection; type: ADME, organism-based, Macaca mulatta; settings: in vivo
[59] = Drug uptake in awake rhesus monkey brain putamen after 115 mins postinjection; type: ADME, organism-based, Macaca mulatta; settings: in vivo
[60] = Drug uptake in awake rhesus monkey brain caudate after 2.25 mins postinjection; type: ADME, organism-based, Macaca mulatta, Caudate nucleus; settings: in vivo, 135 s
[61] = Drug uptake in awake rhesus monkey brain cerebellum after 0.75 mins postinjection; type: ADME, organism-based, Macaca mulatta; settings: in vivo, 45 s
[62] = Ratio of drug uptake in frontal lobe to cerebellum in awake rhesus monkey after 55 mins postinjection; type: ADME, organism-based, Macaca mulatta; settings: in vivo
[63] = Drug uptake in awake rhesus monkey brain cerebellum after 115 mins postinjection; type: ADME, organism-based, Macaca mulatta; settings: in vivo
[64] = Drug uptake in awake rhesus monkey brain frontal lobe after 1.25 mins postinjection; type: ADME, organism-based, Macaca mulatta; settings: in vivo, 75 s
[65] = Ratio of drug uptake in midbrain to cerebellum in awake rhesus monkey after 105 mins postinjection; type: ADME, organism-based, Macaca mulatta; settings: in vivo, 1.75 h

Structure (SMILES): O=C(OCC[18F])C1C2CCC(CC1c1ccc(/C=C\I)cc1)N2 (configuration not stated)
- Ratio [1]: 2.7
- Drug uptake [2]: 2.46
- Ratio [3]: 1.3
- Ratio [4]: 1
- Ratio [5]: 1.9
- Ratio [6]: 1
- Ratio [7]: 0.9
- Ratio [8]: 0.9
- Drug uptake [9]: 2.57
- Drug uptake [10]: 3.24
- Ratio [11]: 2.5
- Ratio [12]: 1
- Drug uptake [13]: 3.34
- Drug uptake [14]: 2.75
- Drug uptake [15]: 1.89
- Ki [16]: 0.013 µM
- Ratio [17]: 1.3
- Drug uptake [18]: 3.79
- Drug uptake [19]: 1.66
- Drug uptake [20]: 1.93
- Ratio [21]: 1.3
- Drug uptake [22]: 0.53
- Drug uptake [23]: 0.31
- Drug uptake [24]: 0.46
- Drug uptake [25]: 0.32
- Drug uptake [26]: 0.08
- Drug uptake [27]: 0
- Drug uptake [28]: 0.05
- Drug uptake [29]: 0.36
- Drug uptake [30]: 0.53
- Ratio [31]: 0
- Ratio [32]: 1
- Ratio [33]: 5.1
- Ratio [34]: 7.2

Structure (SMILES): O=C(OCCC[18F])C1C2CCC(CC1c1cccc(/C=C\Br)c1)N2 (configuration not stated)
- Drug uptake [35]: 2.68
- Drug uptake [36]: 2.16
- Drug uptake [37]: 2.03
- Drug uptake [38]: 3.73
- Drug uptake [39]: 3.68
- Drug uptake [40]: 3.75
- Drug uptake [41]: 3.62

Structure (SMILES): O=C(OCC[18F])C1C2CCC(CC1c1cccc(/C=C\Br)c1)N2 (configuration not stated)
- Drug uptake [42]: 2.56
- Drug uptake [43]: 2.37
- Drug uptake [44]: 1.98

Structure (SMILES): O=C(OCC[18F])C1C2CCC(CC1c1cccc(/C=C\I)c1)N2 (configuration not stated)
- fraction unbound at 2 min [45]: 0.944
- fraction unbound at 5 min [46]: 0.925
- fraction unbound at 3 h [47]: 0.915
- Drug uptake [48]: 0.02
- Drug uptake [49]: 0.01
- Drug uptake [50]: 0.1
- Drug uptake [2]: 0.12
- Drug uptake [51]: 0
- Drug uptake [52]: 0.02
- Drug uptake [53]: 0.05
- Drug uptake [54]: 0
- Drug uptake [55]: 0.01
- Drug uptake [9]: 0.11
- Drug uptake [56]: 0.09
- Drug uptake [10]: 0.15
- Ratio [57]: 1.3
- Ratio [11]: 1.5
- Ratio [58]: 1.2
- Drug uptake [13]: 0.16
- Drug uptake [59]: 0.13
- Drug uptake [60]: 0.03
- Drug uptake [14]: 0.13
- Drug uptake [15]: 0.12
- Drug uptake [38]: 2.51
- Drug uptake [39]: 2.54
- Drug uptake [18]: 0.16
- Drug uptake [61]: 0
- Drug uptake [40]: 2.28
- Drug uptake [41]: 2.24
- Ratio [62]: 1
- Drug uptake [19]: 0.08
- Drug uptake [20]: 0.12
- Drug uptake [63]: 0.08
- Drug uptake [64]: 0
- Ratio [65]: 1.7

Structure (SMILES): O=C(OCCC[18F])C1C2CCC(CC1c1cccc(/C=C\I)c1)N2 (configuration not stated)
- Drug uptake [42]: 2.35
- Drug uptake [43]: 2.39
- Drug uptake [44]: 1.89
